According to BigSolDB 2.1:

With `N#CN=C(N)N` the solubility (mole fraction) (in acetone, 283.15 K) was 0.00634, the solubility (mole fraction) (in acetone, 288.15 K) was 0.00658 and the solubility (mole fraction) (in acetone, 293.15 K) was 0.00677. For the same compound, the solubility (mole fraction) (in acetone, 298.15 K) was 0.00754, the solubility (mole fraction) (in acetone, 303.15 K) was 0.00836 and the solubility (mole fraction) (in acetone, 308.15 K) was 0.0102. The solubility (mole fraction) (in acetone, 313.15 K) was 0.0112, the solubility (mole fraction) (in acetone, 318.15 K) was 0.0133 and the solubility (mole fraction) (in acetone, 323.15 K) was 0.0154. It also gave a solubility (mole fraction) (in acetonitrile, 283.15 K) of 0.00219, a solubility (mole fraction) (in acetonitrile, 288.15 K) of 0.00226 and a solubility (mole fraction) (in acetonitrile, 293.15 K) of 0.00245. The solubility (mole fraction) (in acetonitrile, 298.15 K) was 0.00273, the solubility (mole fraction) (in acetonitrile, 303.15 K) was 0.00296 and the solubility (mole fraction) (in acetonitrile, 308.15 K) was 0.00324. For the same compound, the solubility (mole fraction) (in acetonitrile, 313.15 K) was 0.00364, the solubility (mole fraction) (in acetonitrile, 318.15 K) was 0.00447 and the solubility (mole fraction) (in acetonitrile, 323.15 K) was 0.00528. The solubility (mole fraction) (in ethanol, 283.15 K) was 0.00786, the solubility (mole fraction) (in ethanol, 288.15 K) was 0.00861 and the solubility (mole fraction) (in ethanol, 293.15 K) was 0.00936. It also gave a solubility (mole fraction) (in ethanol, 298.15 K) of 0.0102, a solubility (mole fraction) (in ethanol, 303.15 K) of 0.0109 and a solubility (mole fraction) (in ethanol, 308.15 K) of 0.0125. It also gave a solubility (mole fraction) (in ethanol, 313.15 K) of 0.0142, a solubility (mole fraction) (in ethanol, 318.15 K) of 0.017 and a solubility (mole fraction) (in ethanol, 323.15 K) of 0.0206.
